Test results taken from article PMC10518257 (Nature Cancer, 2023).
Several values for one entry are separate records, joined by “and”; a condition that tells them apart may be missing. Equal values may be shown once.

Experiments:
[1] = tested on: Ba/F3-RET^M918T; test: Growth inhibition assay in Ba/F3 cells (CellTiter-Glo, 72 h); format: cell-based; details: Mus musculus, BaF3, 72 h, Ba/F3-RET^M918T, CellTiter-Glo, 72 h; read-out: GI50 value (Mean ± SD)
[2] = tested on: HBECp53-EV cells; test: Growth inhibition (alamarBlue, 96 h); format: cell-based, human; details: for raw viability signal (Source Data Fig. 3b-c): HBEC-EV, replicate sets
[3] = Animal weight of tumor-bearing mice

## COc1cc2c(Nc3ccc(Br)cc3F)ncnc2cc1OCC1CCN(C)CC1 [Vandetanib]
[1]
  GI50: 39.9 ± 15.2 nM
[2]; 0.01 nM
  raw viability signal (Source Data Fig. 3b-c): 25097.6 and 25887.6 and 17676.4
[2]; 0.1 nM
  raw viability signal (Source Data Fig. 3b-c): 26759 and 26118.3 and 17425.7
[2]; 1 nM
  raw viability signal (Source Data Fig. 3b-c): 23471.2 and 28489.7 and 18981.5
[2]; 10 nM
  raw viability signal (Source Data Fig. 3b-c): 23607.2 and 26549.6 and 18321.2
[2]; 100 nM
  raw viability signal (Source Data Fig. 3b-c): 25750 and 25003
[2]; 1000 nM
  raw viability signal (Source Data Fig. 3b-c): 22139.5 and 31238.9 and 18759.8
[2]; 10000 nM
  raw viability signal (Source Data Fig. 3b-c): 1428.02 and 2282.52 and 1103.83
[2]; Homo sapiens, read-out: IC50 for Inhibition of Growth (95% CI), HBECp53-EV, alamarBlue, 96 h
  IC50: 3580 nM
[3]; ECLC5B xenograft, P = 0.01, animals killed early
  Animal Weight: significant weight loss
[3]; ECLC5 Xenografts, 100 mg/kg QD, treatment day 7, individual animals, 100 mg/kg
  Animal Weight: 26 g and 24 g and 22 g (3×)
[3]; ECLC5 Xenografts, 100 mg/kg QD, treatment day 11, individual animals, 100 mg/kg
  Animal Weight: 25 g and 23 g and 22 g (3×)
[3]; ECLC5 Xenografts, 100 mg/kg QD, treatment day 14, individual animals, 100 mg/kg
  Animal Weight: 24 g and 22 g (2×) and 21 g (2×)
[3]; ECLC5 Xenografts, 100 mg/kg QD, treatment day 19, individual animals, 100 mg/kg
  Animal Weight: 22 g (2×) and 21 g (3×)
[3]; ECLC5 Xenografts, 100 mg/kg QD, treatment day 22, individual animals
  Animal Weight: 20 g
[3]; ECLC5 Xenografts, 100 mg/kg QD, treatment day 25, individual animals
  Animal Weight: 20 g
[3]; LUAD-0057AS1 PDX, 50 mg per kg QD, P = 0.0015
  Animal Weight: significant reduction in animal weight
[3]; LUAD-0057AS1 PDX, 50 mg/kg QD, treatment day 0, individual animals, 50 mg/kg
  Animal Weight: 24 g (3×) and 23 g (3×) and 25 g (2×)
[3]; LUAD-0057AS1 PDX, 50 mg/kg QD, treatment day 3, individual animals, 50 mg/kg
  Animal Weight: 21 g (6×) and 22 g and 23 g
[3]; LUAD-0057AS1 PDX, 50 mg/kg QD, treatment day 7, individual animals, 50 mg/kg
  Animal Weight: 21 g (3×) and 23 g and 22 g (3×) and 20 g
[3]; LUAD-0057AS1 PDX, 50 mg/kg QD, treatment day 10, individual animals, 50 mg/kg
  Animal Weight: 20 g (2×) and 22 g (2×) and 21 g (4×)
[3]; LUAD-0057AS1 PDX, 50 mg/kg QD, treatment day 14, individual animals, 50 mg/kg
  Animal Weight: 20 g (2×) and 21 g (6×)
[3]; LUAD-0057AS1 PDX, 50 mg/kg QD, treatment day 19, individual animals, 50 mg/kg
  Animal Weight: 20 g (4×) and 19 g (2×) and 21 g (2×)
[3]; LUAD-0057AS1 PDX, 50 mg/kg QD, treatment day 23, individual animals, 50 mg/kg
  Animal Weight: 19 g and 20 g
[3]; NIH-3T3-CCDC6::RET xenografts, 100 mg/kg QD, day 0, 100 mg/kg
  Animal Weight: 22 g and 26 g and 24 g and 21 g and 20 g
[3]; NIH-3T3-CCDC6::RET xenografts, 100 mg/kg QD, day 2, 100 mg/kg
  Animal Weight: 22 g and 23 g and 21 g and 19 g
[3]; NIH-3T3-CCDC6::RET xenografts, 100 mg/kg QD, day 5, 100 mg/kg
  Animal Weight: 22 g and 26 g and 24 g and 20 g
[3]; NIH-3T3-CCDC6::RET xenografts, 100 mg/kg QD, day 8, 100 mg/kg
  Animal Weight: 22 g and 25 g and 23 g and 21 g and 19 g
